From paper PMC7560015, “Indoline-6-Sulfonamide Inhibitors of the Bacterial Enzyme DapE” (Antibiotics, 2020)
Where two headings read alike, the source gives them in different places.

Tests used:
HiDapE = molecular target: T1, HiDapE (Haemophilus influenzae, UniProt P44514); experiment: ninhydrin-based DapE inhibition assay (N6-methyl-L,L-SDAP substrate); type: biochemical; settings: for IC50: from three or four % inhibition points, N-Me-SDAP substrate
T1 construct: His6 (cleaved yes); made in house
From the text: To conveniently measure the inhibitory potency of test compounds against DapE, we recently developed a ninhydrin-based assay employing the unnatural but well-tolerated substrate N^6-methyl-L,L-SDAP (1b). Enzymatic cleavage of 1b affords primary amine product 3b (Figure 1), which can be quantified spectrophotometrically following treatment with ninhydrin. Importantly, this assay avoids the significant background signal that would be produced by the reaction of the primary amine in native substrate 1a with ninhydrin. […]
DapE inhibition was measured according to the method previously described. In brief, the enzymatic activity of DapE was measured in triplicate at 570 nm by the Ruhemann’s purple complex formed through the reaction of the exposed primary amine and ninhydrin. To 175 µL of 50 mM HEPES (4-(2-hydroxyethyl)-1-piperazineethanesulfonic acid) buffer at pH 7.5 with 5 µL of 1µM DapE stock solution at 30 °C, 20 µL of 10 mM monomethyl SDAP ((2S,6S)-2-(3-carboxypropanamido)-6-(methylamino)heptanedioic acid) TFA salt was added. The reaction was allowed to proceed for 10 min and quenched by heating at 100 °C for 1 min and subsequently cooling on ice for 1 min. To the cooled reaction, 2% ninhydrin reagent in 100% DMSO (final volume 300 µL) was added and subsequently heated to 80 °C for 15 min. This was quenched by placing in ice water for 2 min, and the absorbance of an 80 µL aliquot was read at 570 nm via a microplate reader. These reactions were set as 100% standard enzyme activity of DapE.

DapE = DapE (Haemophilus influenzae, UniProt P44514); experiment: high-throughput screen of ~33,000 compounds for DapE inhibitors; type: biochemical; settings: read-out: % inhibition of DapE in high-throughput screen
From the text: We were pleased that these two indoline hit structures provided mutual confirmation of one another. Furthermore, indolines are a privileged scaffold in medicinal chemistry, as there are several examples of indoline-containing drugs approved for a variety of treatments: advanced or transitional cell carcinoma of the urothelial tract (vinflunine), glaucoma and severe anticholinergic toxicity (physostigmine), and schizophrenia in adults (lumateperone), or are under investigation, as for benign prostatic hyperplasia (BPH). Furthermore, sulfonamides are pervasive in agrochemicals and in pharmaceuticals across therapeutic areas, and primary sulfonamides have recently been leveraged as versatile intermediates.

[1] = test system: DapE from Haemophilus influenza (HiDapE); settings: competitive inhibitor of HiDapE; cited from earlier work
[2] = solubility at assay concentration; type: physicochemical; settings: at 200 μM; insol. = insoluble
From the text: The compounds synthesized along with their DapE inhibitory potencies measured using the N-Me-SDAP substrate are summarized in Table 1. We kept the N-acetyl group as well as the 5-halogen moiety constant in this first series while varying the sulfonamide N-substituent. […] Several derivatives had poor solubility, limiting the ability to test inhibition at higher concentrations.

T1 sequence (P44514 whole entry): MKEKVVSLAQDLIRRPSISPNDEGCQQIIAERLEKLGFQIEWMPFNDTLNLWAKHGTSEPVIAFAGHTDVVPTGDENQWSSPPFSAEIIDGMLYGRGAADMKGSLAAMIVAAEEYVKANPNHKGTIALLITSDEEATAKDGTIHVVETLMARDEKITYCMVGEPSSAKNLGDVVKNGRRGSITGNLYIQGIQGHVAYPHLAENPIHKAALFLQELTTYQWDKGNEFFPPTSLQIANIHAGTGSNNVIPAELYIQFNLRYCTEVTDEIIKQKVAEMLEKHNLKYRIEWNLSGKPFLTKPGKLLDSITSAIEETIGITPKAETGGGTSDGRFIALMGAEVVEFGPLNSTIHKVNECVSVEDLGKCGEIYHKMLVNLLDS
DapE, sequence (P44514 whole entry): as above

**Q.** With `COCCN(CCOC)S(=O)(=O)c1cc2c(cc1Cl)CCN2C(C)=O` [10f, 1-Acetyl-5-Chloro-N,N-bis(2-Methoxyethyl)Indoline-6-Sulfonamide] as the compound, how does the melting point read?
**A.** The melting point was 93.2 to 94.4 °C.

**Q.** And the IC50 (HiDapE)?
**A.** Its IC50 is over 200 µM.

**Q.** With `CC(=O)N1CCc2cc(Br)c(S(=O)(=O)NCCC(C)C)cc21` [compound 4, 1-Acetyl-5-Bromo-N-Isopentylindoline-6-Sulfonamide] as the compound, how does the inhibition at 12 µM (DapE; at 12 μM, arbitrary hit cutoff) read?
**A.** Its inhibition at 12 µM is over 20%.

**Q.** What about the melting point of the same compound?
**A.** Its melting point is 190 to 191 °C.

**Q.** What about the inhibition at 200 µM (HiDapE; at 200 μM, single concentration, read-out: % Inhibition) of the same compound?
**A.** The inhibition at 200 µM was 42%.

**Q.** What about the IC50 (HiDapE) of the same compound?
**A.** Its IC50 is over 200 µM.

**Q.** Which melting point does the source give for `CCN(CC)S(=O)(=O)c1cc2c(cc1Br)CCN2C(C)=O` [9n, 1-Acetyl-5-Bromo-N,N-Diethylindoline-6-Sulfonamide] here?
**A.** Its melting point is 195 to 196 °C.

**Q.** What about the IC50 (HiDapE) of the same compound?
**A.** Its IC50 is 99 µM.

**Q.** For `CC(=O)N1CCc2cc(Br)c(S(=O)(=O)N3CCCCC3)cc21` [9i, 1-Acetyl-5-Bromo-6-(Piperidin-1-Sulfonyl) Indoline], which melting point is on record?
**A.** Its melting point is 212 to 214 °C.

**Q.** What about the IC50 (HiDapE) of the same compound?
**A.** Its IC50 is 133 µM.

**Q.** For `COC(=O)CCNS(=O)(=O)c1cc2c(cc1Br)CCN2C(C)=O` [9f, Methyl 3-((1-Acetyl-5-Bromoindoline)-6-Sulfonamido)Propanoate], which melting point is on record?
**A.** The melting point was 190 to 193 °C.

**Q.** And the IC50 (HiDapE)?
**A.** Its IC50 is 118 µM.

**Q.** Which IC50 [1] does the source give for `C[C@H](CS)C(=O)N1CCC[C@H]1C(=O)O` [captopril] here?
**A.** Its IC50 is 3.3 µM.

**Q.** For `COC(=O)[C@@H](NS(=O)(=O)c1cc2c(cc1Br)CCN2C(C)=O)C(C)C` [9g, Methyl ((1-Acetyl-5-Bromoindolin-6-yl)Sulfonyl)Valinate], which melting point is on record?
**A.** The melting point was 190.9 to 191.7 °C.

**Q.** And the IC50 (HiDapE)?
**A.** The IC50 was 82 µM.

**Q.** Which inhibition at 200 µM (HiDapE) does the source give for `CC(=O)N1CCc2cc(Br)c(S(=O)(=O)NCC(C)C)cc21` [9a, 1-Acetyl-5-Bromo-N-Isobutylindoline-6-Sulfonamide] here?
**A.** The inhibition at 200 µM was 20%.

**Q.** For `COCCN(CCOC)S(=O)(=O)c1cc2c(cc1Br)CCN2C(C)=O` [9m, 1-Acetyl-5-Bromo-N,N-bis(2-Methoxyethyl)Indoline-6-Sulfonamide], which melting point is on record?
**A.** Its melting point is 110 to 111 °C.

**Q.** What about the “DapE inhibitory potency in words” value (HiDapE) of the same compound?
**A.** The value was “significantly less potent”.

**Q.** What about the inhibition at 100 µM (HiDapE) of the same compound?
**A.** Its inhibition at 100 µM is 26%.

**Q.** With `CC(=O)N1CCc2cc(Br)c(S(=O)(=O)N3CCc4ccccc43)cc21` [9k, 1-Acetyl-5-Bromo-6-(Indolin-1-Sulfonyl) Indoline] as the compound, how does the melting point read?
**A.** Its melting point is 215 to 218 °C.

**Q.** What about the IC50 (HiDapE) of the same compound?
**A.** The IC50 was 86 µM.

**Q.** With `CCCN(CCC)S(=O)(=O)c1cc2c(cc1Cl)CCN2C(C)=O` [10e, 1-Acetyl-5-Chloro-N,N-Dipropylindoline-6-Sulfonamide] as the compound, how does the IC50 (HiDapE) read?
**A.** The IC50 was 88 µM.

**Q.** With `CC(=O)N1CCc2cc(Br)c(S(=O)(=O)NC3CCCCC3)cc21` [9b, 1-Acetyl-5-Bromo-N-Cyclohexylindoline-6-Sulfonamide] as the compound, how does the melting point read?
**A.** Its melting point is 226 to 228 °C.

**Q.** And the IC50 (HiDapE)?
**A.** The IC50 was 162 µM.

**Q.** For `COC(=O)[C@H](Cc1ccccc1)NS(=O)(=O)c1cc2c(cc1Br)CCN2C(C)=O` [9h, Methyl ((1-Acetyl-5-Bromoindolin-6-yl)Sulfonyl)-L-Phenylalaninate], which inhibition at 200 µM (HiDapE) is on record?
**A.** Its inhibition at 200 µM is 61%.

**Q.** For `CC(=O)N1CCc2cc(Br)c(S(=O)(=O)NC(C)(C)C)cc21` [9d, 1-Acetyl-5-Bromo-N-(Tert-Butyl)Indoline-6-Sulfonamide], which inhibition at 100 µM (HiDapE) is on record?
**A.** Its inhibition at 100 µM is 39%.

**Q.** What does the source list for `CC(=O)N1CCc2cc(Cl)c(S(=O)(=O)N3CCCCC3)cc21` [10c, 1-(5-Chloro-6-(Piperidin-1-Ylsulfonyl)Indolin-1-yl)Ethan-1-One]?
**A.** melting point: 199.7 to 201.4 °C; fold more potent than corresponding 5-bromo derivative (HiDapE; 10c relative to 9i): ~ 3 ×; IC50 (HiDapE): 44 µM

**Q.** With `CC(=O)N1CCc2cc(Br)c(S(=O)(=O)N3CC(C)CC(C)C3)cc21` (stereo not shown) [compound 5] as the compound, how does the inhibition at 12 µM (DapE) read?
**A.** Its inhibition at 12 µM is over 20%.

**Q.** Which “solubility in the DapE assay” value [2] does the source give for `CCCN(CCC)S(=O)(=O)c1cc2c(cc1Br)CCN2C(C)=O` [9l, 1-Acetyl-5-Bromo-N,N-Dipropylindoline-6-Sulfonamide] here?
**A.** Its value is “insol”.

**Q.** And the melting point?
**A.** Its melting point is 118 to 120 °C.

**Q.** And the “DapE inhibitory potency in words” value (HiDapE)?
**A.** Its value is “significantly less potent”.

**Q.** What about the inhibition at 20 µM (HiDapE) of the same compound?
**A.** Its inhibition at 20 µM is 5%.

**Q.** For `CC(=O)N1CCc2cc(Cl)c(S(=O)(=O)N3CCCC3)cc21` [10d, 1-(5-Chloro-6-(Pyrrolidin-1-Ylsulfonyl)Indolin-1-yl)ethan-1-One], which IC50 (HiDapE) is on record?
**A.** Its IC50 is 172 µM.

**Q.** With `CC(=O)N1CCc2cc(Br)c(S(=O)(=O)N3CCCC3)cc21` [9j, 1-Acetyl-5-Bromo-6-(Pyrrolidin-1-Sulfonyl) Indoline] as the compound, how does the melting point read?
**A.** Its melting point is 238 to 240 °C.

**Q.** And the IC50 (HiDapE)?
**A.** The IC50 was 97 µM.

**Q.** For `COC(=O)CNS(=O)(=O)c1cc2c(cc1Br)CCN2C(C)=O` [9e, 1-Acetyl-5-Bromoindolin-6-(Sulfonyl Glycine Methyl Ester)], which melting point is on record?
**A.** The melting point was 179 to 182 °C.

**Q.** What about the “DapE inhibitory potency in words” value (HiDapE) of the same compound?
**A.** Its value is “nearly inactive”.

**Q.** And the inhibition at 200 µM (HiDapE)?
**A.** The inhibition at 200 µM was 17%.

**Q.** What does the source list for `CC(=O)N1CCc2cc(Cl)c(S(=O)(=O)NCCC(C)C)cc21` [10a, 1-Acetyl-5-Chloro-N-Isopentylindoline-6-Sulfonamide]?
**A.** fold more potent than corresponding 5-bromo derivative (HiDapE; 10a relative to 4): ~ 5 ×; IC50 (HiDapE): 54 µM

**Q.** With `CC(=O)N1CCc2cc(Cl)c(S(=O)(=O)NC3CCCCC3)cc21` [10b, 1-Acetyl-5-Chloro-N-Cyclohexylindoline-6-Sulfonamide] as the compound, how does the melting point read?
**A.** The melting point was 230 to 230.5 °C.

**Q.** What about the inhibition at 200 µM (HiDapE) of the same compound?
**A.** The inhibition at 200 µM was 58%.

**Q.** What does the source list for `CC(=O)N1CCc2cc(Br)c(S(=O)(=O)NCc3ccccc3)cc21` [9c, 1-Acetyl-N-Benzyl-5-Bromoindoline-6-Sulfonamide]?
**A.** melting point: 205 to 208 °C; inhibition at 200 µM (HiDapE): 56%
